Numbers after ± are expanded uncertainties.
Test: mn = molality of the nth substance listed, in mol/kg
Settings: 101 kPa, Liquid, Alternating current cell with electrodes

CCCCCCCC[N+](C)(C)CCCCCC[N+](C)(C)CCCCCCCC.[Br-].[Br-] + O gave an electrical conductivity (303.15 K, m1 = 0.1147) of 1.235 ± 0.005 S/m, an electrical conductivity (303.15 K, m1 = 0.1161) of 1.242 ± 0.005 S/m and an electrical conductivity (308.15 K, m1 = 0.00368) of 0.09215 ± 0.00058 S/m. For the same molecule, the electrical conductivity (308.15 K, m1 = 0.00726) was 0.1725 ± 0.00082 S/m, the electrical conductivity (308.15 K, m1 = 0.01076) was 0.2453 ± 0.0011 S/m and the electrical conductivity (308.15 K, m1 = 0.01417) was 0.3115 ± 0.0013 S/m. It also gave an electrical conductivity (308.15 K, m1 = 0.0175) of 0.3725 ± 0.0015 S/m, an electrical conductivity (308.15 K, m1 = 0.02076) of 0.4289 ± 0.0018 S/m and an electrical conductivity (308.15 K, m1 = 0.02394) of 0.4827 ± 0.002 S/m. For the same molecule, the electrical conductivity (308.15 K, m1 = 0.02704) was 0.5324 ± 0.0022 S/m, the electrical conductivity (308.15 K, m1 = 0.03008) was 0.5804 ± 0.0024 S/m and the electrical conductivity (308.15 K, m1 = 0.03304) was 0.6259 ± 0.0025 S/m. For the same molecule, the electrical conductivity (308.15 K, m1 = 0.03595) was 0.6694 ± 0.0027 S/m, the electrical conductivity (308.15 K, m1 = 0.03878) was 0.7099 ± 0.0029 S/m and the electrical conductivity (308.15 K, m1 = 0.04156) was 0.7496 ± 0.003 S/m. The electrical conductivity (308.15 K, m1 = 0.04428) was 0.7852 ± 0.0032 S/m, the electrical conductivity (308.15 K, m1 = 0.04693) was 0.8231 ± 0.0033 S/m and the electrical conductivity (308.15 K, m1 = 0.05209) was 0.8882 ± 0.0036 S/m. The electrical conductivity (308.15 K, m1 = 0.05458) was 0.9163 ± 0.0037 S/m, the electrical conductivity (308.15 K, m1 = 0.05703) was 0.9472 ± 0.0038 S/m and the electrical conductivity (308.15 K, m1 = 0.05942) was 0.9728 ± 0.0039 S/m. It also gave an electrical conductivity (308.15 K, m1 = 0.06177) of 1.001 ± 0.004 S/m, an electrical conductivity (308.15 K, m1 = 0.06407) of 1.027 ± 0.0041 S/m and an electrical conductivity (308.15 K, m1 = 0.06633) of 1.05 ± 0.0042 S/m. It also gave an electrical conductivity (308.15 K, m1 = 0.06854) of 1.072 ± 0.0043 S/m, an electrical conductivity (308.15 K, m1 = 0.07072) of 1.092 ± 0.0044 S/m and an electrical conductivity (308.15 K, m1 = 0.07284) of 1.111 ± 0.0045 S/m. For the same molecule, the electrical conductivity (308.15 K, m1 = 0.07493) was 1.128 ± 0.0045 S/m, the electrical conductivity (308.15 K, m1 = 0.07698) was 1.149 ± 0.0046 S/m and the electrical conductivity (308.15 K, m1 = 0.079) was 1.164 ± 0.0047 S/m. For the same molecule, the electrical conductivity (308.15 K, m1 = 0.08097) was 1.182 ± 0.0048 S/m, the electrical conductivity (308.15 K, m1 = 0.08291) was 1.195 ± 0.0048 S/m and the electrical conductivity (308.15 K, m1 = 0.08482) was 1.211 ± 0.0049 S/m. The electrical conductivity (308.15 K, m1 = 0.08669) was 1.225 ± 0.0049 S/m, the electrical conductivity (308.15 K, m1 = 0.08852) was 1.238 ± 0.005 S/m and the electrical conductivity (308.15 K, m1 = 0.09033) was 1.251 ± 0.005 S/m. For the same molecule, the electrical conductivity (308.15 K, m1 = 0.0921) was 1.264 ± 0.0051 S/m, the electrical conductivity (308.15 K, m1 = 0.09385) was 1.276 ± 0.0051 S/m and the electrical conductivity (308.15 K, m1 = 0.09556) was 1.286 ± 0.0052 S/m. It also gave an electrical conductivity (308.15 K, m1 = 0.09725) of 1.298 ± 0.0052 S/m, an electrical conductivity (308.15 K, m1 = 0.0989) of 1.308 ± 0.0053 S/m and an electrical conductivity (308.15 K, m1 = 0.1005) of 1.319 ± 0.0053 S/m. The electrical conductivity (308.15 K, m1 = 0.1021) was 1.326 ± 0.0053 S/m, the electrical conductivity (308.15 K, m1 = 0.1037) was 1.337 ± 0.0054 S/m and the electrical conductivity (308.15 K, m1 = 0.1053) was 1.346 ± 0.0054 S/m. The electrical conductivity (308.15 K, m1 = 0.1068) was 1.354 ± 0.0054 S/m, the electrical conductivity (308.15 K, m1 = 0.1083) was 1.363 ± 0.0055 S/m and the electrical conductivity (308.15 K, m1 = 0.1098) was 1.37 ± 0.0055 S/m. It also gave an electrical conductivity (308.15 K, m1 = 0.1112) of 1.38 ± 0.0056 S/m, an electrical conductivity (308.15 K, m1 = 0.1127) of 1.385 ± 0.0056 S/m and an electrical conductivity (308.15 K, m1 = 0.1141) of 1.392 ± 0.0056 S/m. For the same molecule, the electrical conductivity (313.15 K, m1 = 0.00383) was 0.1036 ± 0.00063 S/m, the electrical conductivity (313.15 K, m1 = 0.00755) was 0.1854 ± 0.00085 S/m and the electrical conductivity (313.15 K, m1 = 0.01119) was 0.2548 ± 0.0011 S/m. The electrical conductivity (313.15 K, m1 = 0.01473) was 0.3279 ± 0.0014 S/m, the electrical conductivity (313.15 K, m1 = 0.01819) was 0.3993 ± 0.0016 S/m and the electrical conductivity (313.15 K, m1 = 0.02156) was 0.4651 ± 0.0019 S/m. It also gave an electrical conductivity (313.15 K, m1 = 0.02485) of 0.5281 ± 0.0022 S/m, an electrical conductivity (313.15 K, m1 = 0.02806) of 0.5866 ± 0.0024 S/m and an electrical conductivity (313.15 K, m1 = 0.0312) of 0.6397 ± 0.0026 S/m. It also gave an electrical conductivity (313.15 K, m1 = 0.03426) of 0.6934 ± 0.0028 S/m, an electrical conductivity (313.15 K, m1 = 0.03725) of 0.7428 ± 0.003 S/m and an electrical conductivity (313.15 K, m1 = 0.04018) of 0.7886 ± 0.0032 S/m. It also gave an electrical conductivity (313.15 K, m1 = 0.04304) of 0.8328 ± 0.0034 S/m, an electrical conductivity (313.15 K, m1 = 0.04583) of 0.8749 ± 0.0035 S/m and an electrical conductivity (313.15 K, m1 = 0.04857) of 0.9139 ± 0.0037 S/m. For the same molecule, the electrical conductivity (313.15 K, m1 = 0.05386) was 0.9883 ± 0.004 S/m, the electrical conductivity (313.15 K, m1 = 0.05642) was 1.024 ± 0.0041 S/m and the electrical conductivity (313.15 K, m1 = 0.05893) was 1.055 ± 0.0042 S/m. For the same molecule, the electrical conductivity (313.15 K, m1 = 0.06138) was 1.086 ± 0.0044 S/m, the electrical conductivity (313.15 K, m1 = 0.06379) was 1.114 ± 0.0045 S/m and the electrical conductivity (313.15 K, m1 = 0.06615) was 1.139 ± 0.0046 S/m. For the same molecule, the electrical conductivity (313.15 K, m1 = 0.06845) was 1.165 ± 0.0047 S/m, the electrical conductivity (313.15 K, m1 = 0.07072) was 1.19 ± 0.0048 S/m and the electrical conductivity (313.15 K, m1 = 0.07293) was 1.212 ± 0.0049 S/m. It also gave an electrical conductivity (313.15 K, m1 = 0.07511) of 1.236 ± 0.005 S/m, an electrical conductivity (313.15 K, m1 = 0.07724) of 1.257 ± 0.005 S/m and an electrical conductivity (313.15 K, m1 = 0.07933) of 1.276 ± 0.0051 S/m. It also gave an electrical conductivity (313.15 K, m1 = 0.08138) of 1.296 ± 0.0052 S/m, an electrical conductivity (313.15 K, m1 = 0.08339) of 1.314 ± 0.0053 S/m and an electrical conductivity (313.15 K, m1 = 0.08537) of 1.332 ± 0.0053 S/m. For the same molecule, the electrical conductivity (313.15 K, m1 = 0.0873) was 1.348 ± 0.0054 S/m, the electrical conductivity (313.15 K, m1 = 0.08921) was 1.364 ± 0.0055 S/m and the electrical conductivity (313.15 K, m1 = 0.09107) was 1.378 ± 0.0055 S/m. It also gave an electrical conductivity (313.15 K, m1 = 0.09291) of 1.392 ± 0.0056 S/m, an electrical conductivity (313.15 K, m1 = 0.09471) of 1.406 ± 0.0056 S/m and an electrical conductivity (313.15 K, m1 = 0.09648) of 1.418 ± 0.0057 S/m. The electrical conductivity (313.15 K, m1 = 0.09822) was 1.432 ± 0.0058 S/m, the electrical conductivity (313.15 K, m1 = 0.09993) was 1.444 ± 0.0058 S/m and the electrical conductivity (313.15 K, m1 = 0.1016) was 1.457 ± 0.0059 S/m. For the same molecule, the electrical conductivity (313.15 K, m1 = 0.1032) was 1.467 ± 0.0059 S/m, the electrical conductivity (313.15 K, m1 = 0.1049) was 1.476 ± 0.0059 S/m and the electrical conductivity (313.15 K, m1 = 0.1065) was 1.487 ± 0.006 S/m. It also gave an electrical conductivity (313.15 K, m1 = 0.108) of 1.493 ± 0.006 S/m, an electrical conductivity (313.15 K, m1 = 0.1096) of 1.505 ± 0.006 S/m and an electrical conductivity (313.15 K, m1 = 0.1111) of 1.516 ± 0.0061 S/m. It also gave an electrical conductivity (313.15 K, m1 = 0.1126) of 1.527 ± 0.0061 S/m, an electrical conductivity (313.15 K, m1 = 0.1141) of 1.537 ± 0.0062 S/m and an electrical conductivity (313.15 K, m1 = 0.1155) of 1.545 ± 0.0062 S/m.

— the NIST ThermoML archive (doi:10.1021/je500804j)
